Source: patent US10632147B2, “Methods and compositions for treating inflammatory disorders” (priority 2007, dated 2020)

Conditions: in vivo

Structure (SMILES): NCc1ccc(S(N)(=O)=O)cc1 [Sulfamylon]
- safety profile (adverse effects): absence of adverse effects
